Patent EP0474374A1, “Method for treatment of bone wasting diseases using a progestin” (ORTHO PHARMACEUTICAL CORPORATION, priority 1990, dated 1992)
“Also recorded” adds a separate entry of the source.

What was measured:
[1] = test system: MC3T3-El osteoblast-line cells; assay: Osteoblast cell proliferation (3H-thymidine incorporation into DNA); format: cell-based, mouse; settings: for OSTEOBLAST STIMULATION: ability to stimulate 3H-thymidine incorporation in MC3T3-El osteoblast-line cells, stimulation over control; for osteoblast proliferation and differentiation: summary statement in words, bone forming cells, cell line not named
Description: Only cells undergoing mitosis will synthesize new DNA and thus only these cells will incorporate the radiolabelled DNA specific nucleotide, thymidine. […] The ability of agents to increase osteoblast proliferation and differentiation can be predicted by their action on cultured osteoblast-line cells in vitro. In this test mouse (MC3T3-El), and human (TE-85) osteoblast-line cells were cultured in vitro and the effect of various progestins was tested on osteoblast cell proliferation. Osteoblast cell proliferation was determined by measuring the rate of DNA synthesis, which was quantified by measuring the rate of ³H-thymidine incorporation into DNA.
Following their placement into 96 well culture plates all the osteoblast-line cells, either the MC3T3-El or the TE-85 cell lines, were allowed an additional 24 hours preincubation period in media containing only 0.1% fetal bovine sera. The next day the test compounds were added and screened at concentrations ranging from 10⁻¹⁴ to 10⁻⁶ M depending on the particular study. Twenty hours later a 20 ul aliquot of media containing 0.4 uCi of ³H-thymidine was added to each culture well. The cells were then incubated for an additional 4 hours. The incubation was terminated by aspirating the media and washing with HBSS (Hank's Balanced Salt Solution). The cells were then treated with 100 ul of Trypsin-EDTA (Ethylene Diamine Tetra Acetic Acid) (0.5% trypsin and 5.3 mM EDTA) for 30 minutes at room temperature. The cells were then aspirated onto a glass fiber filter and washed with water. The radioactivity on the filters was quantified by liquid scintillation spectroscopy. The rate of ³H-thymidine incorporation into DNA is then utilized as an index of cell proliferation.
Mouse (MC3T3-El) osteoblast-line cells were cultured in vitro and the effect of various progestins on the ability of the cells to incorporate 3H-thymidine was determined. Osteoblast cell proliferation is determined by measuring the rate of DNA synthesis which was quantified by measuring the rate of ³H-thymidine incorporation into DNA. MC-3T3-El osteoblast-line cells were harvested from large culture flasks where they were allowed to grow to near confluency using Trypsin.

[2] = test system: T47D breast carcinoma-line cells; assay: Breast carcinoma cell proliferation (3H-thymidine incorporation into DNA); format: cell-based, human; settings: 0.00001 to 100 nM, result in words
Description: T47D breast (Human) carcinoma-line cells (American Type Tissue Culture Collection #HTB 133, Rockville, MD) were harvested using Trypsin from large (175 cm²) culture flasks where they were allowed to grow to near confluency. The cells were plated into 96 well culture plates, 1600 cells in 100 ul per well in DMEM with 25 mM Hepes buffer, L-glutamine (584 mg/l); D-glucose (4.5 gm/l) supplemented with 10% fetal bovine sera; penicillin (100 units/ml) and streptomycin (100 mcg/ml); sodium pyruvate (10 uM final concentration). The cells were allowed to plate overnight in DMEM containing 10% fetal bovine sera at 37°C in an atmosphere of 5% CO₂/95% air. Following their placement into 96 well culture plates, the cells were incubated for an additional 24 hour preincubation period in media containing only 0.1% fetal bovine sera. The next day the test compounds were added and screened at concentrations ranging from 10⁻¹⁴ to 10⁻⁶ M depending on the particular study. Twenty hours later a 20 ul aliquot of media containing 0.4 uCi of ³H-thymidine was added to each culture well. The cells were then incubated for an additional 4 hours. […] The radioactivity on the filters was quantified by liquid scintillation spectroscopy. […]
MC3T3-El cells were cultured as described in Example #1. […] The radioactivity on the filters was quantified by liquid scintillation spectroscopy. […]

[3] = test system: MC3T3-El osteoblast-line cells; assay: Osteoblast cell number by Coulter counting; format: cell-based, mouse; settings: 0.01 to 100 nM, 5 days, no fetal bovine sera; result in words
Description: In this study MC3T3-El osteoblast-line cells were cultured into 6 well plates at a density of 50,000 cells/well in 10% fetal bovine sera. The following day media was changed to that containing no fetal bovine sera . The next day some of the cells were harvested by trypsin and counted using a Coulter cell counter. This count was considered as Day 0. […] After 5 days all of the cells were harvested and counted using a Coulter cell counter.
Figure 2. […] Each striped bar represents the mean and the vertical line l S.E.M. of 6 determinations.

[4] = test system: TE-85 human osteoblast-line cells; assay: Osteoblast cell proliferation (3H-thymidine incorporation into DNA); format: cell-based; settings: TE-85 cells, 0.0001 to 100 nM; result in words
Excerpt: The action of select progestins to stimulate osteoblast proliferation can be measured in culture by estimating the rate of DNA synthesis by the rate of 3H-thymidine incorporation into DNA. Only cells undergoing mitosis will synthesize new DNA and thus only these cells will incorporate the radiolabelled DNA specific nucleotide, thymidine. The stimulation of the proliferation and differentiation of bone-forming cells, osteoblasts, is a prerequisite for an increase in bone formation and bone mass. The ability of agents to increase osteoblast proliferation and differentiation can be predicted by their action on cultured osteoblast-line cells in vitro. […] Osteoblast cell proliferation was determined by measuring the rate of DNA synthesis, which was quantified by measuring the rate of ³H-thymidine incorporation into DNA. […]
MC-3T3-El (cloned by Sudo and Coworkers, Koriyama Japan) and TE85 (American Type Tissue Culture Collection #CRL 1543, Rockville, MD) osteoblast-line cells were harvested from large culture flasks (175 cm²) where they were allowed to grow to near confluency using Trypsin. […] The radioactivity on the filters was quantified by liquid scintillation spectroscopy. […]
Osteoblast growth was determined by me: ring the rate of 3H-thymidine incorporation into DNA as in Example #1. […]

[5] = test system: TE-85 human osteoblast-line cells; assay: Alkaline phosphatase secretion into the media (osteoblast differentiation); format: cell-based
Description: Osteoblast growth was determined by me: ring the rate of 3H-thymidine incorporation into DNA as in Example #1. Osteoblast differention was estimated by measuring the secretion of skeletal alkaline phosphatase into the media. Skeletal alkaline phosphatase is considered a reliable marker of osteoblast differention and activity. TE-85 human osteoblast-line cells were cultured as described previously in Example #1. […] 3H-Thymidine incorporation into the osteoblast cell DNA and alkaline phosphatase secreted into the media was measured simultaneously (Figure 3 and 4).

| Compound | OSTEOBLAST STIMULATION [1] | osteoblast proliferation and differentiation [1] | also measured |
| --- | --- | --- | --- |
| C#C[C@]1(OC(C)=O)CC[C@H]2[C@@H]3CCC4=CC(=NO)CC[C@@H]4[C@H]3CC[C@@]21CC (mixture of isomers) [NORGESTIMATE] | NOT ACTIVE | do not stimulate | – |
| C#C[C@]1(O)CC[C@H]2[C@@H]3CCC4=CC(=O)CC[C@@H]4[C@H]3C(=C)C[C@@]21CC [3-KETO-DESOGESTREL] | NOT ACTIVE | – | – |
| C[C@]12CC[C@H]3[C@@H](CCC4=CC(=O)CC[C@@H]43)[C@@H]1CC[C@@H]2O [19-nortestosterone] | – | do not stimulate | – |
| C[C@]12CCC(=O)C[C@@H]1CC[C@@H]1[C@@H]2CC[C@]2(C)[C@@H](O)CC[C@@H]12 [DIHYDROTESTOSTERONE, 5-alpha-dihydrotestosterone] | NOT ACTIVE | – | – |
| C#C[C@]1(O)CC[C@H]2[C@@H]3CCC4=CC(=O)CC[C@@H]4[C@H]3CC[C@@]21CC [LEVONORGESTREL] | NOT ACTIVE | – | – |
| C#C[C@]1(O)CC[C@H]2[C@@H]3CCC4=CC(=O)CC[C@@H]4[C@H]3CC[C@@]21C [NORETHINDRONE] | ACTIVE | significantly and reproducibly stimulate | osteoblast proliferation ([1]; MC3T3-El cells, result in words): does possess osteoblast proliferative action; also recorded: dose-related increase; proliferation of breast cell line [2]: dose-related increase; osteoblast number [3]: induced an increase in osteoblast number; 3H-thymidine incorporation [4]: increased; secretion of alkaline phosphatase ([5]; TE-85 cells, 0.0001 to 100 nM, result in words): increased; cellular alkaline phosphatase activity in osteoblast-line cells ([5]; summary statement in words, cell line not named): stimulate |
| CC(=O)[C@H]1CC[C@H]2[C@@H]3CCC4=CC(=O)CC[C@]4(C)[C@H]3CC[C@]12C [PROGESTERONE] | ACTIVE | significantly and reproducibly stimulate | – |
| CC(=O)O[C@]1(C(C)=O)CC[C@H]2[C@@H]3C=C(Cl)C4=CC(=O)CC[C@]4(C)[C@H]3CC[C@@]21C [chlormadionone acetate] | – | significantly and reproducibly stimulate | – |
| CC(=O)O[C@]1(C(C)=O)CC[C@H]2[C@@H]3C=C(Cl)C4=CC(=O)[C@@H]5C[C@@H]5[C@]4(C)[C@H]3CC[C@@]21C [cyproterone acetate] | – | do not stimulate | – |
| C#C[C@]1(O)CC[C@H]2[C@@H]3CCC4=CCCC[C@@H]4[C@H]3C(=C)C[C@@]21CC [desogestrel] | – | do not stimulate | – |
| CC(=O)O[C@]1(C(C)=O)CC[C@H]2[C@@H]3C[C@H](C)C4=CC(=O)CC[C@]4(C)[C@H]3CC[C@@]21C [medroxyprogesterone acetate] | – | significantly and reproducibly stimulate | – |
| CC(=O)O[C@]1(C(C)=O)CC[C@H]2[C@@H]3C=C(C)C4=CC(=O)CC[C@]4(C)[C@H]3CC[C@@]21C [megestrol acetate] | – | significantly and reproducibly stimulate | – |
| C#C[C@]1(OC(C)=O)CC[C@H]2[C@@H]3CCC4=CC(=O)CC[C@@H]4[C@H]3CC[C@@]21C [norethindrone acetate] | – | significantly and reproducibly stimulate | – |
| C#C[C@]1(O)CC[C@H]2[C@@H]3CCC4=C(CCC(=O)C4)[C@H]3CC[C@@]21C [norethynodrel] | – | significantly and reproducibly stimulate | – |
